PubChem BioAssay AID1259407 (Chemical Carcinogenesis Research Information System (CCRIS), 2018)
Activity calls are given as the source filed them. No rule for the calls is given here.

System: CCRIS mutagenicity, Ames/micronucleus/aberration tests
Experiment: CCRIS mutagenicity studies
[1] = Test System: AMES SALMONELLA TYPHIMURIUM, Strain/Indicator: TA98, Metabolic Activation: NONE, Method: PREINCUBATION
[2] = Test System: AMES SALMONELLA TYPHIMURIUM, Strain/Indicator: TA100, Metabolic Activation: NONE, Method: PREINCUBATION
[3] = Test System: AMES SALMONELLA TYPHIMURIUM, Strain/Indicator: TA1535, Metabolic Activation: NONE, Method: PREINCUBATION
[4] = Test System: AMES SALMONELLA TYPHIMURIUM, Strain/Indicator: TA1537, Metabolic Activation: NONE, Method: PREINCUBATION
[5] = Test System: AMES SALMONELLA TYPHIMURIUM, Strain/Indicator: TA98, Metabolic Activation: NONE, Method: STANDARD PLATE
[6] = Test System: AMES SALMONELLA TYPHIMURIUM, Strain/Indicator: TA100, Metabolic Activation: NONE, Method: STANDARD PLATE
[7] = Test System: AMES SALMONELLA TYPHIMURIUM, Strain/Indicator: TA1535, Metabolic Activation: NONE, Method: STANDARD PLATE
[8] = Test System: AMES SALMONELLA TYPHIMURIUM, Strain/Indicator: TA1537, Metabolic Activation: NONE, Method: STANDARD PLATE
[9] = Test System: AMES SALMONELLA TYPHIMURIUM, Strain/Indicator: TA1538, Metabolic Activation: NONE, Method: STANDARD PLATE

**Q.** How did the mutagenic call (End Point: IN VIVO MICRONUCLEUS, Test System: BONE MARROW POLYCHROMATIC ERYTHROCYTES, Species: MOUSE, Strain/Sex: DDY/MALE, Route: IP) turn out when [O][Cl+][O-] was run?
**A.** active; positive

**Q.** Which results are given for CC1=CC(=C(c2ccc(N)cc2)c2ccc(N)cc2)C=CC1=N?
**A.** mutagenic call [1]: inactive; negative; mutagenic call (Test System: AMES SALMONELLA TYPHIMURIUM, Strain/Indicator: TA98, Metabolic Activation: RAT LIVER S-9, PHENOBARBITAL AND BETA-NAPHTHOFLAVONE, Method: PREINCUBATION): inactive; negative; mutagenic call [2]: inactive; negative; mutagenic call (Test System: AMES SALMONELLA TYPHIMURIUM, Strain/Indicator: TA100, Metabolic Activation: RAT LIVER S-9, PHENOBARBITAL AND BETA-NAPHTHOFLAVONE, Method: PREINCUBATION): inactive; negative; mutagenic call (Test System: AMES SALMONELLA TYPHIMURIUM, Strain/Indicator: TA100, Method: PREINCUBATION): active; positive; mutagenic call [3]: inactive; negative; mutagenic call (Test System: AMES SALMONELLA TYPHIMURIUM, Strain/Indicator: TA1535, Metabolic Activation: RAT LIVER S-9, PHENOBARBITAL AND BETA-NAPHTHOFLAVONE, Method: PREINCUBATION): inactive; negative; mutagenic call [4]: inactive; negative; mutagenic call (Test System: AMES SALMONELLA TYPHIMURIUM, Strain/Indicator: TA1537, Metabolic Activation: RAT LIVER S-9, PHENOBARBITAL AND BETA-NAPHTHOFLAVONE, Method: PREINCUBATION): inactive; negative; mutagenic call (Test System: AMES SALMONELLA TYPHIMURIUM, Strain/Indicator: TA1538, Metabolic Activation: NONE, Method: PREINCUBATION): inactive; negative; mutagenic call (Test System: AMES SALMONELLA TYPHIMURIUM, Strain/Indicator: TA1538, Metabolic Activation: RAT LIVER S-9, PHENOBARBITAL AND BETA-NAPHTHOFLAVONE, Method: PREINCUBATION): inactive; negative; mutagenic call (Test System: E.COLI, Strain/Indicator: WP2UVRA, Metabolic Activation: NONE, Method: PREINCUBATION): inactive; negative; mutagenic call (Test System: E.COLI, Strain/Indicator: WP2UVRA, Metabolic Activation: RAT LIVER S-9, PHENOBARBITAL AND BETA-NAPHTHOFLAVONE, Method: PREINCUBATION): inactive; negative

**Q.** Which results are given for O=C(O)[C@@H]1CS[C@H](c2ccccc2O)N1C(=O)CCSSCCC(=O)N1[C@@H](c2ccccc2O)SC[C@H]1C(=O)O?
**A.** mutagenic call [5]: inactive; negative; mutagenic call [6]: inactive; negative; mutagenic call [7]: inactive; negative; mutagenic call [8]: inactive; negative; mutagenic call [9]: inactive; negative; mutagenic call (Test System: E. COLI, Strain/Indicator: WP2, Metabolic Activation: NONE, Method: STANDARD PLATE): inactive; negative; mutagenic call (Test System: E. COLI, Strain/Indicator: WP2 UVRA, Metabolic Activation: NONE, Method: STANDARD PLATE): inactive; negative

**Q.** How did the mutagenic call (Test System: AMES SALMONELLA TYPHIMURIUM, Strain/Indicator: TA98, Metabolic Activation: HAMSTER, LIVER, S-9, AROCLOR 1254 (10%), Method: PREINCUBATION) turn out when O=C(O)CCC(=O)OC[C@@H](NC(=O)C(Cl)Cl)[C@H](O)c1ccc([N+](=O)[O-])cc1 was run?
**A.** inactive; negative

**Q.** And the mutagenic call [1]?
**A.** inactive; negative

**Q.** And the mutagenic call (Test System: AMES SALMONELLA TYPHIMURIUM, Strain/Indicator: TA98, Metabolic Activation: RAT, LIVER, S-9, AROCLOR 1254 (10%), Method: PREINCUBATION)?
**A.** inactive; negative

**Q.** And the mutagenic call (Test System: AMES SALMONELLA TYPHIMURIUM, Strain/Indicator: TA100, Metabolic Activation: HAMSTER, LIVER, S-9, AROCLOR 1254 (10%), Method: PREINCUBATION)?
**A.** inactive; negative

**Q.** And the mutagenic call [2]?
**A.** inactive; negative

**Q.** What about the mutagenic call (Test System: AMES SALMONELLA TYPHIMURIUM, Strain/Indicator: TA100, Metabolic Activation: RAT, LIVER, S-9, AROCLOR 1254 (10%), Method: PREINCUBATION) of the same compound?
**A.** inactive; negative

**Q.** What about the mutagenic call (Test System: AMES SALMONELLA TYPHIMURIUM, Strain/Indicator: TA1535, Metabolic Activation: HAMSTER, LIVER, S-9, AROCLOR 1254 (10%), Method: PREINCUBATION) of the same compound?
**A.** inactive; negative

**Q.** And the mutagenic call [3]?
**A.** inactive; negative

**Q.** What about the mutagenic call (Test System: AMES SALMONELLA TYPHIMURIUM, Strain/Indicator: TA1535, Metabolic Activation: RAT, LIVER, S-9, AROCLOR 1254 (10%), Method: PREINCUBATION) of the same compound?
**A.** inactive; negative

**Q.** And the mutagenic call (Test System: AMES SALMONELLA TYPHIMURIUM, Strain/Indicator: TA1537, Metabolic Activation: HAMSTER, LIVER, S-9, AROCLOR 1254 (10%), Method: PREINCUBATION)?
**A.** inactive; negative

**Q.** What about the mutagenic call [4] of the same compound?
**A.** inactive; negative

**Q.** And the mutagenic call (Test System: AMES SALMONELLA TYPHIMURIUM, Strain/Indicator: TA1537, Metabolic Activation: RAT, LIVER, S-9, AROCLOR 1254 (10%), Method: PREINCUBATION)?
**A.** inactive; negative

**Q.** And the mutagenic call (Test System: MOUSE LYMPHOMA, Strain/Indicator: L5178Y (TK+/TK-), Metabolic Activation: NONE, Method: SUSPENSION/PLATE)?
**A.** active; positive

**Q.** And the mutagenic call (Test System: MOUSE LYMPHOMA, Strain/Indicator: L5178Y (TK+/TK-), Metabolic Activation: RAT, LIVER, S-9, AROCLOR 1254, Method: SUSPENSION/PLATE)?
**A.** active; positive

**Q.** And the mutagenic call (Test System: MOUSE LYMPHOMA, Strain/Indicator: L5178Y (TK+/TK-), Metabolic Activation: RAT, LIVER, S-9, Method: SUSPENSION/PLATE)?
**A.** active; positive

**Q.** How did the mutagenic call [5] turn out when O=Nc1c(-c2ccc(Cl)cc2)nc2sccn12 was run?
**A.** inactive; negative

**Q.** What about the mutagenic call [6] of the same compound?
**A.** inactive; negative

**Q.** And the mutagenic call [7]?
**A.** inactive; negative

**Q.** What about the mutagenic call [8] of the same compound?
**A.** active; positive

**Q.** What about the mutagenic call [9] of the same compound?
**A.** active; positive

**Q.** Which mutagenic call (Test System: AMES SALMONELLA TYPHIMURIUM, Strain/Indicator: TA97, Metabolic Activation: RAT, LIVER, S-9, PHENOBARBITAL, Method: STANDARD PLATE) does the source give for c1ccc(-c2cccc(-c3ccccn3)n2)nc1 here?
**A.** active; positive

**Q.** And the mutagenic call (Test System: AMES SALMONELLA TYPHIMURIUM, Strain/Indicator: TA98, Metabolic Activation: RAT, LIVER, S-9, PHENOBARBITAL, Method: STANDARD PLATE)?
**A.** inactive; negative

**Q.** And the mutagenic call (Test System: AMES SALMONELLA TYPHIMURIUM, Strain/Indicator: TA100, Metabolic Activation: RAT, LIVER, S-9, PHENOBARBITAL, Method: STANDARD PLATE)?
**A.** active; positive

**Q.** And the mutagenic call (Test System: AMES SALMONELLA TYPHIMURIUM, Strain/Indicator: TA1535, Metabolic Activation: RAT, LIVER, S-9, PHENOBARBITAL, Method: STANDARD PLATE)?
**A.** inactive; negative

**Q.** And the mutagenic call (Test System: AMES SALMONELLA TYPHIMURIUM, Strain/Indicator: TA1537, Metabolic Activation: RAT, LIVER, S-9, PHENOBARBITAL, Method: STANDARD PLATE)?
**A.** inactive; negative

**Q.** What about the mutagenic call (Test System: AMES SALMONELLA TYPHIMURIUM, Strain/Indicator: TA1538, Metabolic Activation: RAT, LIVER, S-9, PHENOBARBITAL, Method: STANDARD PLATE) of the same compound?
**A.** inactive; negative
